Like-named read-outs stand apart in the source and are kept apart here.
What was measured:
[1] = tested on: BACE1 (Aβ40 from cells stably expressing Amyloid Precursor Protein); experiment: In vitro BACE1 cell-based assay (Aβ40 in conditioned medium, HTRF)
In short: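 APP-stably expressing cells treated with compounds in 22-point dose response from 62.5 μM top concentration (0.625% final DMSO) for 24 h at 37° C in DMEM/10% FBS. Secreted Aβ40 in conditioned medium quantified by HTRF using ConfAb40 and biotinylated 6E10 with streptavidin-APC, 30-60 min at 23° C.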

[2] = tested on: β-secretase (Aβ peptide levels); experiment: In vivo inhibition of β-secretase (Aβ reduction in rat CSF and brain)
Excerpt: In vivo Inhibition of β-Secretase
Several animal models, including mouse, rat, dog, and monkey, may be used to screen for inhibition of β-secretase activity in vivo following administration of a test compound. […] Animals to be used in this experiment can be wild type, transgenic, or gene knockout animals. For example, the Tg2576 mouse model, prepared and conducted as described in Hsiao et al., Science 274:99-102 (1996), and other non-transgenic or gene knockout animals are useful to analyze in vivo inhibition of Aβ peptide production in the presence of test compounds.
Generally, 2 to 18 month old Tg2576 mice, gene knockout mice or non-transgenic animals are administered test compounds formulated in vehicles, such as cyclodextran, phosphate buffers, hydroxypropyl methylcellulose or other suitable vehicles. One to twenty-four hours following the administration of compound, animals are sacrificed, and brains as well as cerebrospinal fluid (CSF) and plasma are removed for analysis of Aβ levels and test compound concentrations (Dovey et al., J. Neurochem., 76(1):173-181 (2001)) Beginning at time 0, animals are administered by oral gavage, or other means of delivery such as intravenous injection, an inhibitory test compound of up to 100 mg/kg in a standard, conventional formulation, such as 2% hydroxypropyl methylcellulose, 1% Tween80. A separate group of animals receive 2% hydroxypropyl methylcellulose, 1% Tween80 alone, containing no test compound, and serve as a vehicle-control group. At the end of the test period, animals are sacrificed and brain tissues, plasma or cerebrospinal fluid are collected. Brains are either homogenized in 10 volumes (w/v) of 0.2% diethylamine (DEA) in 50 mM NaCl (Best et al., J. Pharmacol. Exp. Ther. 313(2):902-908 (2005)), or in 10 volumes of 0.5% TritonX-100 in Tris-buffered saline (pH at about 7.6). Homogenates are centrifuged at 355,000 g, 4° C. for 30 minutes. CSF or brain supernatants are then analyzed for the presence of Aβ by specific sandwich ELISA assays based on ECL (Electrochemiluminescence) technology. For example, rat Aβ40 is measured using biotinylated-4G8 (Signet) as a capture antibody and Fab40 (an in-house antibody specific to the C-terminal of Aβ40) as a detection antibody. For example, 4 hours after administration of 30 mg/kg oral dose of the test compound in 2% hydroxypropyl methylcellulose, 1% Tween80 (pH2.2) to 200 g male Sprague Dawley rats, Aβ peptide levels are measured for reduction by X % and Y % in cerebrospinal fluid and brain, respectively, when compared to the levels measured in the vehicle-treated or control mice. Alternatively, the antibody sold with the V-PLEX abeta40 Peptide (4G8) Kit, commercially available from Meso Scale Diagnostics (MSD), Rockville, Md. 20850-3173 (Catalog NO. K150SJE-1) may be used in this assay.
The results presented in Table 3 were obtained using certain compounds described herein in the in vivo protocol described above.

[3] = target: human recombinant BACE2 (Homo sapiens (Human), UniProt Q9Y5Z0); experiment: In vitro enzymatic BACE2 FRET assay; format: biochemical; conditions: read-out: BACE2 Enzyme IC50
In short: (§1)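 Ni-NTA-purified recombinant human BACE1 or BACE2 cleaved a 50 nM internally quenched peptide FRET substrate for one hour. Reactions were stopped with tris buffer raising pH to neutrality. Fluorescence was read at ex 488/em 590 nm.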

[4] = target: human recombinant BACE1 (Homo sapiens (Human), UniProt P56817); experiment: In vitro enzymatic BACE1 FRET assay; format: biochemical; conditions: read-out: BACE1 Enzyme IC50
In short: as §1

[5] = target: Recombinant CatD (Homo sapiens (Human), UniProt P07339); experiment: In vitro enzymatic Cathepsin D (CatD) FRET assay; format: biochemical; conditions: read-out: Cat D Enzyme IC50
In short: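 Recombinant human CatD, expressed in CHO cells, was run in 0.05 M citrate pH 3.5 with 10% DMSO final and 5 mM CHAPS. Reactions were started with 20 nM quenched FRET peptide and incubated 1 h. Tris buffer was added to neutralize the pH before reading fluorescence at ex 500/em 580 nm.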

[6] = tested on: pigment epithelium of the rat's eye; conditions: higher compound dose given for three months; cited from earlier work
[7] = tested on: CSF Aβ peptide concentrations; conditions: cited from earlier work
[8] = tested on: Aβ peptide levels in the CSF and plasma; conditions: nonhuman primates; cited from earlier work
[9] = tested on: Aβ peptide in CSF; conditions: oral dose of 95 mg once daily; cited from earlier work
[10] = Aβ40, 24 h incubation, read-out: BACE1 Cell IC50
[11] = 24 h, read-out: BACE1 Cell IC50 (μM)

Chain of human recombinant BACE1 (P56817 46-501): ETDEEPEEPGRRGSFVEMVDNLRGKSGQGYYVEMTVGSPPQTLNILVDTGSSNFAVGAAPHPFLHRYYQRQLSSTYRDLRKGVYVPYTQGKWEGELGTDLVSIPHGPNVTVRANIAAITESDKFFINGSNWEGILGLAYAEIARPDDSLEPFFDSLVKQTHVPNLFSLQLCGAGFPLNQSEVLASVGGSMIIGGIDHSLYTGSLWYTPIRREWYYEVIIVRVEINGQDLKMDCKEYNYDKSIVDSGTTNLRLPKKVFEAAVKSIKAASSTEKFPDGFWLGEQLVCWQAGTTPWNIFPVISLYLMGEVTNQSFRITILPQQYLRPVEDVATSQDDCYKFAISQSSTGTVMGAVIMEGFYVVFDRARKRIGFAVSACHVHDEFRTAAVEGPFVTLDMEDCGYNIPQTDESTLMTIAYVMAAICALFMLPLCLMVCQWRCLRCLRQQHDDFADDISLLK
Chain of Recombinant CatD (P07339 65-412): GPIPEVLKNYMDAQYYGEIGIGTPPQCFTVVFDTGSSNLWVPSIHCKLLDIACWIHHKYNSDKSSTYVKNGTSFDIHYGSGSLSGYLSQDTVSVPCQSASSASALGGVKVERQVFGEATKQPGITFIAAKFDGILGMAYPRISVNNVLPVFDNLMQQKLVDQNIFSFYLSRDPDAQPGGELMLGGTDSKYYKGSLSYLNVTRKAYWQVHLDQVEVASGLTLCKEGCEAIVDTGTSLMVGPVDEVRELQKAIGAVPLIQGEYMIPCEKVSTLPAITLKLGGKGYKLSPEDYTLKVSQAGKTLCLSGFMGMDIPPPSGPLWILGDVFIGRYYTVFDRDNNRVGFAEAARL
Chain of human recombinant BACE2 (Q9Y5Z0 63-518): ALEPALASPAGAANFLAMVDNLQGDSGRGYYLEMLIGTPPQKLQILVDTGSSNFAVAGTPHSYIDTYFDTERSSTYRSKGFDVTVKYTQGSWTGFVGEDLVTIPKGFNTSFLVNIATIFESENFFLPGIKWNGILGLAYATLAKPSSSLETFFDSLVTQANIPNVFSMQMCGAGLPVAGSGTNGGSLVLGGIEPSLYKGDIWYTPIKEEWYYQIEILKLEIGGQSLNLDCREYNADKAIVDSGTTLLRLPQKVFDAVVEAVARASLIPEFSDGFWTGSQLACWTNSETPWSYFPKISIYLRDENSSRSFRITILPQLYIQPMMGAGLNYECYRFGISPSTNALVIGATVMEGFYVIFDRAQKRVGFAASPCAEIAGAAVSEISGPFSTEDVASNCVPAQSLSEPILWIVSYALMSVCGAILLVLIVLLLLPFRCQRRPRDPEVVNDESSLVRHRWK

C#CCOc1cnc(/C(F)=C/c2ccc(F)c([C@]34CN(C(C)=O)C[C@H]3CSC(N)=N4)c2)cn1 [Example 118, 1-((4aR,7aS)-2-amino-7a-(2-fluoro-5-((Z)-2-fluoro-2-(5-(prop-2-yn-1-yloxy)pyrazin-2-yl)vinyl)phenyl)-4a,5,7,7a-tetrahydropyrrolo[3,4-d][1,3]thiazin-6(4H)-yl)ethanone]
IC50 [1, 10]: 0.0198 µM
% Aβ reduction in rat CSF at 10 mpk [2]: 43%
% Aβ reduction in rat brain at 10 mpk [2]: 43%
IC50 [3]: 394 nM
IC50 [4]: 7.45 nM
IC50 [5]: 125000 nM

C[C@@]1(c2cc(-c3cncnc3)c(F)cc2F)CCSC(N)=N1 [LY 2811376]
eye toxicity finding [6]: damaged the pigment epithelium of the rat's eye

N#Cc1cnc(/C(F)=C/c2ccc(F)c([C@]34CO[C@H](C(F)(F)F)[C@H]3CSC(N)=N4)c2)cn1 [Example 128, 5-((Z)-2-(3-((4aS,5S,7aS)-2-amino-5-(trifluoromethyl)-4a,5,7,7a-tetrahydro-4H-furo[3,4-d][1,3]thiazin-7a-yl)-4-fluorophenyl)-1-fluorovinyl)pyrazine-2-carbonitrile]
IC50 [1, 11]: 0.00364 µM
% Aβ reduction in rat CSF at 10 mpk [2]: 79%
% Aβ reduction in rat brain at 10 mpk [2]: 77%
IC50 [3]: 341 nM
IC50 [4]: 15.3 nM
IC50 [5]: 418000 nM

CN1C(=N)N[C@](C)(c2cc(NC(=O)c3ccc(F)cn3)ccc2F)CS1(=O)=O [MK-8931]
CSF Aβ peptide concentrations ([7]; human, in vivo): significantly reduced CSF Aβ peptide concentrations in a sustained and dose-dependent manner
safety profile ([7]; phase I clinical trials): excellent safety profile with no immediately noticeable side effects

C#CCOc1cnc(/C(F)=C/c2ccc(F)c([C@]34CO[C@H](C(F)(F)F)[C@H]3CSC(N)=N4)c2)cn1 [Example 127, (4aS,5S,7aS)-7a-(2-fluoro-5-((Z)-2-fluoro-2-(5-(prop-2-ynyloxy)pyrazin-2-yl)vinyl)phenyl)-5-(trifluoromethyl)-4a,5,7,7a-tetrahydro-4H-furo[3,4-d][1,3]thiazin-2-amine]
IC50 [1, 11]: 0.0243 µM
IC50 [3]: 2900 nM
IC50 [4]: 103 nM
IC50 [5]: 160000 nM

C[C@H]1OC[C@]2(c3cc(NC(=O)c4cnc(C(F)F)cn4)ccc3F)N=C(N)SC[C@H]12 [Example E2609]
Aβ peptide levels in the CSF and plasma [8]: significant reduction in Aβ peptide levels in the CSF and plasma

C[C@@]1(c2cc(NC(=O)c3ccc(C#N)cn3)ccc2F)C=CSC(N)=N1 [JNJ-54861911]
Aβ peptide reduction in CSF [9]: up to 95%

N#Cc1ccc(/C(F)=C/c2ccc(F)c([C@]34CO[C@H](C(F)(F)F)[C@H]3COC(N)=N4)c2)nc1 (single isomer, unassigned) [Example 142]
IC50 [1, 10]: 0.0588 µM
IC50 [3]: 3540 nM
IC50 [4]: 37.2 nM
IC50 [5]: > 400000 nM

N#Cc1ccc(/C(F)=C/c2ccc(F)c([C@]34CO[C@H](C(F)(F)F)[C@H]3CSC(N)=N4)c2)nc1 [Example 126, 6-((Z)-2-(3-((4aS,5S,7aS)-2-amino-5-(trifluoromethyl)-4a,5,7,7a-tetrahydro-4H-furo[3,4-d][1,3]thiazin-7a-yl)-4-fluorophenyl)-1-fluorovinyl)nicotinonitrile]
IC50 [1, 10]: 0.00574 µM
% Aβ reduction in rat CSF at 10 mpk [2]: 83%
% Aβ reduction in rat brain at 10 mpk [2]: 80%
IC50 [3]: 334 nM
IC50 [4]: 20.1 nM
IC50 [5]: 292000 nM

NC1=N[C@@]2(c3cc(/C=C(\F)c4ccc(F)cn4)ccc3F)CO[C@H](C(F)(F)F)[C@H]2CS1 [Example 132, (4aS,5S,7aS)-7a-(2-fluoro-5-((Z)-2-fluoro-2-(5-fluoropyridin-2-yl)vinyl)phenyl)-5-(trifluoromethyl)-4a,5,7,7a-tetrahydro-4H-furo[3,4-d][1,3]thiazin-2-amine]
IC50 [1, 10]: 0.112 µM
IC50 [3]: 427 nM
IC50 [4]: 426 nM
IC50 [5]: > 400000 nM

NC1=N[C@@]2(c3cc(/C=C(\F)c4cnc(OCC(F)F)cn4)ccc3F)CN(c3ncc(F)cn3)C[C@H]2CS1 [Example 113, (4aR,7aS)-7a-(5-((Z)-2-(5-(2,2-difluoroethoxy)pyrazin-2-yl)-2-fluorovinyl)-2-fluorophenyl)-6-(5-fluoropyrimidin-2-yl)-4,4a,5,6,7,7a-hexahydropyrrolo[3,4-d][1,3]thiazin-2-amine]
IC50 [1, 10]: 0.00935 µM
IC50 [3]: 38.1 nM
IC50 [4]: 22.6 nM
IC50 [5]: 26600 nM

C#CCOc1cnc(/C(F)=C/c2ccc(F)c([C@]34CN(C(=O)OC(C)C)C[C@H]3CSC(N)=N4)c2)cn1 [Example 124, (4aR,7aS)-isopropyl 2-amino-7a-(2-fluoro-5-((Z)-2-fluoro-2-(5-(prop-2-yn-1-yloxy)pyrazin-2-yl)vinyl)phenyl)-4a,5,7,7a-tetrahydropyrrolo[3,4-d][1,3]thiazine-6(4H)-carboxylate]
IC50 [1, 11]: 0.00269 µM
IC50 [3]: 92.2 nM
IC50 [4]: 2.62 nM
IC50 [5]: 23800 nM
